In US4145554A, “3-Nitropyrazole derivatives” (Eli Lilly and Company, priority 1977, dated 1979):
In brackets after ≈: the same amount, converted by molar mass. Like-named read-outs stand apart in the source and are kept apart here.

Key:
Escherichia coli = test: in vitro tube dilution test (MIC); assay type: cell-based
Excerpt: (§1) Our compound, 1-(2-hydroxyethyl)-3-nitro-4-pyrazolecarboxamide, has been extensively tested in vitro to determine the range of microorganisms against which it is active. The table of data below reports the minimum inhibitory concentration (MIC) at which the compound is effective in controlling a variety of microorganisms in a standard tube dilution test system. The MIC is reported as micrograms of compound per milliliter.
(§2) Other compounds of our invention have also been tested in the tube dilution test and shown to have in vitro activity against a number of microorganisms. The table below reports tests of a number of exemplary compounds against exemplary microorganisms. The compounds are identified by their numbers in the listing above. The data are reported as the MIC in micrograms per milliliter against the named exemplary microorganisms.

Mycoplasma gallisepticum = test: in vitro tube dilution test (MIC); assay type: cell-based; details: Mycoplasmoides gallisepticum
Excerpt: as §1, §2

Pasteurella multocida = test: in vitro tube dilution test (MIC); assay type: cell-based
Excerpt: as §1
(§3) The other preferred compounds of our invention have also been thoroughly tested in the in vitro tube dilution test.
as §2

Salmonella dublin = test: in vitro tube dilution test (MIC); assay type: cell-based; details: Salmonella enterica
Excerpt: as §3, §2

[1] = test system: Staphylococcus aureus sp. 1130; test: in vitro tube dilution test (MIC); assay type: cell-based
Excerpt: as §3, §2

Vibrio coli 3811 = test: in vitro tube dilution test (MIC); assay type: cell-based; details: Campylobacter coli
Excerpt: as §3, §2

Streptococcus sp. 80 = test: in vitro tube dilution test (MIC); assay type: cell-based
Excerpt: as §2

Salmonella typhimurium = test: Salmonellosis in chickens, single injection to day-old chicks; assay type: in vivo; details: for responders at 60 mg/kg: Salmonella enterica, TYPHIMURIUM, 168 h, single injection of 60 mg./kg., seven days, read-out: Survival (converted)
Method: A number of our 3-nitropyrazoles have been tested against an induced infection of Salmonella typhimurium in day-old chicks. The test was conducted by administering a single injection of 60 mg./kg. of the compounds to each of five chicks. The following day, the chicks were challenged by the subcutaneous injection of a dispersion of S. typhimurium organisms sufficient to kill most or all of the untreated control chicks.
Some of the compounds were tested more than once, in which instances the data are reported as the total survivors from the multiple treatment groups. Untreated, challenged control groups of chicks were tested together with each batch of groups of chicks to which test compounds were administered. Since the mortality of the untreated control chicks varied somewhat from one group of tests to another, results of the untreated control groups are reported below with each test.

[2] = Mycoplasma gallisepticum, tube dilution, read-out: MIC
[3] = Salmonella dublin, tube dilution, read-out: MIC
[4] = Staphylococcus aureus sp. 1130, tube dilution, read-out: MIC
[5] = Vibrio coli 3811, tube dilution, read-out: MIC
[6] = Streptococcus sp. 80, tube dilution, read-out: MIC

MIC (Escherichia coli; tube dilution, read-out: MIC) [µg/mL]	MIC (Mycoplasma gallisepticum; [2]) [µg/mL]	MIC (Pasteurella multocida; tube dilution, read-out: MIC) [µg/mL]	MIC (Salmonella dublin; [3]) [µg/mL]	MIC [1, 4] [µg/mL]	MIC (Vibrio coli 3811; [5]) [µg/mL]	MIC (Streptococcus sp. 80; [6]) [µg/mL]	SMILES	also measured
50 (≈ 284 µM)	50 (≈ 284 µM)	12.5 (≈ 71 µM)	50 (≈ 284 µM)	> 50	6.25 (≈ 35.5 µM)	> 50	C#CCn1cc(C#N)c([N+](=O)[O-])n1 [Compound 4, 1-propargyl-3-nitro-4-pyrazolecarbonitrile]	–
–	–	–	–	–	–	–	NC(=O)c1cn(-c2ccc([N+](=O)[O-])cc2)nc1[N+](=O)[O-] [Compound 5, 3-nitro-1-(4-nitrophenyl)-4-pyrazolecarboxamide]	MIC (Escherichia coli): > 50 µg/mL; MIC (Mycoplasma gallisepticum): 25 µg/mL (≈ 90.2 µM); MIC (Pasteurella multocida): 3.12 µg/mL (≈ 11.3 µM); MIC (Salmonella dublin): > 50 µg/mL; MIC ([1]; Staphylococcus aureus, SP.1130): 3.12 µg/mL (≈ 11.3 µM); MIC (Vibrio coli 3811; 3811): 6.25 µg/mL (≈ 22.5 µM); MIC (Streptococcus sp. 80; Streptococcus, SP.80): > 50 µg/mL
50 (≈ 152 µM)	50 (≈ 152 µM)	25 (≈ 75.9 µM)	> 50	6.25 (≈ 19 µM)	50 (≈ 152 µM)	6.25 (≈ 19 µM)	NC(=O)c1cn(CCN2C(=O)c3ccccc3C2=O)nc1[N+](=O)[O-] [Compound 10, 1-(2-phthalimidoethyl)-3-nitro-4-pyrazolecarboxamide]	–
100 (≈ 657 µM)	50 (≈ 329 µM)	–	100 (≈ 657 µM)	100 (≈ 657 µM)	100 (≈ 657 µM)	100 (≈ 657 µM)	Cn1cc(C#N)c([N+](=O)[O-])n1 [Compound 30, 1-methyl-3-nitro-4-pyrazolecarbonitrile]	–
50 (≈ 258 µM)	50 (≈ 258 µM)	–	50 (≈ 258 µM)	50 (≈ 258 µM)	12.5 (≈ 64.4 µM)	50 (≈ 258 µM)	N#Cc1cn(CC2CO2)nc1[N+](=O)[O-] (stereo not shown) [Compound 31, 1-(2,3-epoxypropyl)-3-nitro-4-pyrazolecarbonitrile]	–
100 (≈ 499 µM)	> 50	–	100 (≈ 499 µM)	100 (≈ 499 µM)	12.5 (≈ 62.3 µM)	100 (≈ 499 µM)	N#Cc1cn(CCCl)nc1[N+](=O)[O-] [Compound 33, 1-(2-chloroethyl)-3-nitro-4-pyrazolecarbonitrile]	responders at 60 mg/kg (Salmonella typhimurium): 80%
–	–	–	–	–	–	–	CCCn1cc(C(N)=O)c([N+](=O)[O-])n1 [Compound 38, 3-nitro-1-propyl-4-pyrazolecarboxamide]	responders at 60 mg/kg (Salmonella typhimurium): 80%
> 50	50 (≈ 177 µM)	0.39 (≈ 1.38 µM)	> 50	25 (≈ 88.5 µM)	50 (≈ 177 µM)	> 50	CCCCCCCCCn1cc(C(N)=O)c([N+](=O)[O-])n1 [Compound 48, 3-nitro-1-nonyl-4-pyrazolecarboxamide]	–
12.5 (≈ 68.6 µM)	–	–	6.25 (≈ 34.3 µM)	6.25 (≈ 34.3 µM)	–	50 (≈ 275 µM)	N#Cc1cn(CCO)nc1[N+](=O)[O-] [Compound 55, 1-(2-hydroxyethyl)-3-nitro-4-pyrazolecarbonitrile]	responders at 60 mg/kg (Salmonella typhimurium): 80%
> 50	50 (≈ 320 µM)	25 (≈ 160 µM)	> 50	> 50	> 50	> 50	NC(=O)c1c[nH]nc1[N+](=O)[O-] [Compound 60, 3(5)-nitro-4-pyrazolecarboxamide]	–
50 (≈ 197 µM)	50 (≈ 197 µM)	25 (≈ 98.3 µM)	50 (≈ 197 µM)	50 (≈ 197 µM)	50 (≈ 197 µM)	50 (≈ 197 µM)	CCOC(Cn1cc(C#N)c([N+](=O)[O-])n1)OCC [Compound 67, 1-(2,2-diethoxyethyl)-3-nitro-4-pyrazolecarbonitrile]	–
–	–	–	–	–	–	–	N#Cc1cn(-c2ncc([N+](=O)[O-])s2)nc1[N+](=O)[O-] [Compound 68, 3-nitro-1-(5-nitro-2-thiazolyl)-4-pyrazolecarbonitrile]	MIC (Escherichia coli): 50 µg/mL (≈ 188 µM); MIC (Mycoplasma gallisepticum): 25 µg/mL (≈ 93.9 µM); MIC (Pasteurella multocida): 12.5 µg/mL (≈ 47 µM); MIC (Salmonella dublin): 50 µg/mL (≈ 188 µM); MIC ([1]; Staphylococcus aureus, SP.1130): 25 µg/mL (≈ 93.9 µM); MIC (Vibrio coli 3811; 3811): 12.5 µg/mL (≈ 47 µM); MIC (Streptococcus sp. 80; Streptococcus, SP.80): 50 µg/mL (≈ 188 µM)
–	–	–	–	–	–	–	CC(O)Cn1cc(C(N)=O)c([N+](=O)[O-])n1 (stereo not shown) [Compound 69, 1-(2-hydroxypropyl)-3-nitro-4-pyrazolecarboxamide]	responders at 60 mg/kg (Salmonella typhimurium): 100%
100 (≈ 438 µM)	> 50	–	100 (≈ 438 µM)	100 (≈ 438 µM)	12.5 (≈ 54.8 µM)	100 (≈ 438 µM)	N#Cc1cn(Cc2ccccc2)nc1[N+](=O)[O-] [Compound 70, 1-benzyl-3-nitro-4-pyrazolecarbonitrile]	–
> 50	> 50	> 50	> 50	> 50	> 50	> 50	CCSCCn1cc(C#N)c([N+](=O)[O-])n1 [Compound 72, 1-(2-ethylthioethyl)-3-nitro-4-pyrazolecarbonitrile]	–
50 (≈ 262 µM)	50 (≈ 262 µM)	12.5 (≈ 65.4 µM)	50 (≈ 262 µM)	50 (≈ 262 µM)	25 (≈ 131 µM)	50 (≈ 262 µM)	N#CCCn1cc(C#N)c([N+](=O)[O-])n1 [Compound 73, 4-cyano-3-nitro-1-pyrazolepropionitrile]	–
–	–	–	–	–	–	–	Cn1cc(C(=O)NN=Cc2ccc([N+](=O)[O-])o2)c([N+](=O)[O-])n1 [Compound 74, 1-methyl-3-nitro-4-pyrazolecarboxylic acid, 5-nitrofurfurylidene hydrazide]	MIC (Escherichia coli): 6.25 µg/mL (≈ 20.3 µM); MIC (Mycoplasma gallisepticum): 0.78 µg/mL (≈ 2.53 µM); MIC (Salmonella dublin): 12.5 µg/mL (≈ 40.6 µM); MIC ([1]; Staphylococcus aureus, SP.1130): 1.56 µg/mL (≈ 5.06 µM); MIC (Vibrio coli 3811; 3811): 0.39 µg/mL (≈ 1.27 µM); MIC (Streptococcus sp. 80; Streptococcus, SP.80): 50 µg/mL (≈ 162 µM)
–	–	–	–	–	–	–	Cc1ccc(C(=O)OCCn2cc(C(N)=O)c([N+](=O)[O-])n2)cc1 [Compound 76, [2-(4-carbamoyl-3-nitropyrazol-1-yl)ethyl] p-toluate]	responders at 60 mg/kg (Salmonella typhimurium): 100%
–	–	–	–	–	–	–	CCOC(=O)OCCn1cc(C(N)=O)c([N+](=O)[O-])n1 [Compound 78, [2-(4-carbamoyl-3-nitropyrazol-1-yl)ethyl] ethyl carbonate]	responders at 60 mg/kg (Salmonella typhimurium): 40%
> 50	50 (≈ 194 µM)	> 50	> 50	> 50	25 (≈ 96.8 µM)	> 50	CCS(=O)(=O)CCn1cc(C#N)c([N+](=O)[O-])n1 [Compound 86, 1-(2-ethylsulfonyethyl)-3-nitro-4-pyrazolecarbonitrile]	–
> 50	> 50	12.5 (≈ 51 µM)	> 50	> 50	12.5 (≈ 51 µM)	50 (≈ 204 µM)	N#Cc1cn(CCBr)nc1[N+](=O)[O-] [Compound 91, 1-(2-bromoethyl)-3-nitro-4-pyrazolecarbonitrile]	–
–	–	–	–	–	–	–	N#Cc1cn(-c2ccc([N+](=O)[O-])cc2)nc1[N+](=O)[O-] [Compound 92, 3-nitro-1-(4-nitrophenyl)-4-pyrazolecarbonitrile]	MIC (Escherichia coli): > 50 µg/mL; MIC (Mycoplasma gallisepticum): 12.5 µg/mL (≈ 48.2 µM); MIC (Pasteurella multocida): 0.78 µg/mL (≈ 3.01 µM); MIC (Salmonella dublin): > 50 µg/mL; MIC ([1]; Staphylococcus aureus, SP.1130): 6.25 µg/mL (≈ 24.1 µM); MIC (Vibrio coli 3811; 3811): 6.25 µg/mL (≈ 24.1 µM); MIC (Streptococcus sp. 80; Streptococcus, SP.80): 50 µg/mL (≈ 193 µM)
–	–	–	–	–	–	–	O=C(NN=Cc1ccc([N+](=O)[O-])o1)c1cn(CCO)nc1[N+](=O)[O-] [Compound 94, 1-(2-hydroxyethyl)-3-nitropyrazole-4-carboxylic acid, 5-nitrofurfurylidene hydrazide]	MIC (Escherichia coli): 25 µg/mL (≈ 73.9 µM); MIC (Mycoplasma gallisepticum): 6.25 µg/mL (≈ 18.5 µM); MIC (Pasteurella multocida): < 1.56 µg/mL; MIC (Salmonella dublin): 25 µg/mL (≈ 73.9 µM); MIC ([1]; Staphylococcus aureus, SP.1130): 6.25 µg/mL (≈ 18.5 µM); MIC (Vibrio coli 3811; 3811): < 1.56 µg/mL; MIC (Streptococcus sp. 80; Streptococcus, SP.80): 25 µg/mL (≈ 73.9 µM)
–	–	–	–	–	–	–	NC(=O)c1cn(-c2ncc([N+](=O)[O-])s2)nc1[N+](=O)[O-] [Compound 95, 3-nitro-1-(5-nitro-2-thiazolyl)pyrazole-4-carboxamide]	MIC (Escherichia coli): > 50 µg/mL; MIC (Mycoplasma gallisepticum): 12.5 µg/mL (≈ 44 µM); MIC (Pasteurella multocida): 3.12 µg/mL (≈ 11 µM); MIC (Salmonella dublin): 25 µg/mL (≈ 88 µM); MIC ([1]; Staphylococcus aureus, SP.1130): < 1.56 µg/mL; MIC (Vibrio coli 3811; 3811): < 1.56 µg/mL; MIC (Streptococcus sp. 80; Streptococcus, SP.80): 50 µg/mL (≈ 176 µM)
> 50	25 (≈ 109 µM)	25 (≈ 109 µM)	> 50	> 50	12.5 (≈ 54.3 µM)	> 50	CSCCn1cc(C(N)=O)c([N+](=O)[O-])n1 [Compound 97, 1-[2-(methylthio)ethyl]-3-nitropyrazole-4-carboxamide]	–
–	–	–	–	–	–	–	NC(=O)c1cn(CCOC(=O)c2ccc(Cl)c(Cl)c2)nc1[N+](=O)[O-] [Compound 98, 2-(4-carbamoyl-3-nitropyrazol-1-yl)ethyl 3,4-dichlorobenzoate]	responders at 60 mg/kg (Salmonella typhimurium): 100%
–	–	–	–	–	–	–	NC(=O)c1cn(CCOC(=O)c2cccc(Cl)c2)nc1[N+](=O)[O-] [Compound 99, 2-(4-carbamoyl-3-nitropyrazol-1-yl)ethyl m-chlorobenzoate]	responders at 60 mg/kg (Salmonella typhimurium): 80%
12.5 (≈ 55.3 µM)	12.5 (≈ 55.3 µM)	–	12.5 (≈ 55.3 µM)	6.25 (≈ 27.6 µM)	12.5 (≈ 55.3 µM)	50 (≈ 221 µM)	Cn1cc(-c2nnc(N)s2)c([N+](=O)[O-])n1 [Compound 102, 2-amino-5-(1-methyl-3-nitro-4-pyrazolyl)-1,3,4-thiadiazole]	chicks protected of the 5-bird treated group (Salmonella typhimurium; salmonella challenge): at least three chicks of the 5-bird treated group
